Experimental data: ChEMBL document CHEMBL3804756 (J Med Chem, 2016)

Key:
Histamine H2 receptor [1] = biological target: T1, Histamine H2 receptor (Homo sapiens, UniProt P25021); test: Agonist activity at human histamine H2 receptor expressed in sf9 cell membrane co-expressing Gsalphas incubated for 90 mins by [35S]GTPgammaS binding assay; format: functional
Histamine H4 receptor [2] = biological target: T2, Histamine H4 receptor (Homo sapiens, UniProt Q9H3N8); test: Agonist activity at human histamine H4 receptor expressed in sf9 cell membrane co-expressing mammalian Galphai2 and Gbeta1gamma2 incubated for 90 mins by [35S]GTPgammaS binding assay; format: functional
Histamine H1 receptor = Histamine H1 receptor (Homo sapiens, UniProt P35367); test: Displacement of [3H]mepyramine from human histamine H1 receptor expressed in sf9 cell membrane co-expressing RGS4 incubated for 60 mins by liquid scintillation counting method
Histamine H3 receptor [3] = biological target: T3, Histamine H3 receptor (Homo sapiens, UniProt Q9Y5N1); test: Antagonist activity at human histamine H3 receptor expressed in sf9 cell membrane co-expressing mammalian Galphai2 and Gbeta1gamma2 assessed as inhibition of histamine-induced [35S]GTPgammaS binding incubated for 90 mins; format: functional
Histamine H2 receptor [4] = biological target: T1, Histamine H2 receptor; test: Intrinsic activity at human histamine H2 receptor expressed in sf9 cell membrane co-expressing Gsalphas at 10 uM incubated for 90 mins by [35S]GTPgammaS binding assay relative to histamine; format: functional
Histamine H3 receptor [5] = biological target: T3, Histamine H3 receptor; test: Intrinsic activity at human histamine H3 receptor expressed in sf9 cell membrane co-expressing mammalian Galphai2 and Gbeta1gamma2 at 10 uM incubated for 90 mins by [35S]GTPgammaS binding assay relative to histamine; format: functional
Histamine H4 receptor [6] = biological target: T2, Histamine H4 receptor; test: biochemical; format: cell-based, SK-N-MC
Histamine H3 receptor [7] = biological target: T3, Histamine H3 receptor; test: Displacement of [3H]N-alpha-methylhistamine from human histamine H3 receptor expressed in human SK-N-MC cells incubated for 40 mins; format: cell-based

T3 sequence (Q9Y5N1 whole entry): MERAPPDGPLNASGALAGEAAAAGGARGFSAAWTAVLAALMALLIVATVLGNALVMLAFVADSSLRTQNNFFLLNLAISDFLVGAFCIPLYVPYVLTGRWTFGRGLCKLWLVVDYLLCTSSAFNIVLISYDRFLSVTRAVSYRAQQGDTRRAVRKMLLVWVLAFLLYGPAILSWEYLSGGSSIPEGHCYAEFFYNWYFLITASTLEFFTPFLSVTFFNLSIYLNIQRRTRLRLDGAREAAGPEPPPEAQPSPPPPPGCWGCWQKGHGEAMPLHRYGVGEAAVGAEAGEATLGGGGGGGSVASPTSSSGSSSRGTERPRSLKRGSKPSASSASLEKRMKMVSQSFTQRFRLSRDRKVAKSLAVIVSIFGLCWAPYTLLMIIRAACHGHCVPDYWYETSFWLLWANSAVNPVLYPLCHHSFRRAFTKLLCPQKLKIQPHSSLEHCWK
T2 sequence (Q9H3N8 whole entry): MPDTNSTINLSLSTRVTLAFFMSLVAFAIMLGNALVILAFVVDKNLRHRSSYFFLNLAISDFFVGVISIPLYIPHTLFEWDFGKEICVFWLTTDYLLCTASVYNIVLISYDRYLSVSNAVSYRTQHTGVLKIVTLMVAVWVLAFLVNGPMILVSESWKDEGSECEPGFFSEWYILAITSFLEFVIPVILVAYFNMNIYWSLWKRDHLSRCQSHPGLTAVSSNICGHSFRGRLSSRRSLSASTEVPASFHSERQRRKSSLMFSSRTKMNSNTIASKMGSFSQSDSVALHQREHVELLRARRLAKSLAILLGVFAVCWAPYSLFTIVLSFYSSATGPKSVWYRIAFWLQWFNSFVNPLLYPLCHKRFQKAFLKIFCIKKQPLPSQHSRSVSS
T1 sequence (P25021 whole entry): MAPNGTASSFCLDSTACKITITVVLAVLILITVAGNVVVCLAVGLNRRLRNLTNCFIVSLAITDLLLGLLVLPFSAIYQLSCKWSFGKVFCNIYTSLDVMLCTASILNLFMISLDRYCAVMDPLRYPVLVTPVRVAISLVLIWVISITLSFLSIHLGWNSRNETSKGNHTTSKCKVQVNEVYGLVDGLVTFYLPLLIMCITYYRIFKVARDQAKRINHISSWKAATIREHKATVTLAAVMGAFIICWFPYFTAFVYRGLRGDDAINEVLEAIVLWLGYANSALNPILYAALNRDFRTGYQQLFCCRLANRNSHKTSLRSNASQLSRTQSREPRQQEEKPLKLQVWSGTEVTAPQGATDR
Histamine H1 receptor, sequence (P35367 whole entry): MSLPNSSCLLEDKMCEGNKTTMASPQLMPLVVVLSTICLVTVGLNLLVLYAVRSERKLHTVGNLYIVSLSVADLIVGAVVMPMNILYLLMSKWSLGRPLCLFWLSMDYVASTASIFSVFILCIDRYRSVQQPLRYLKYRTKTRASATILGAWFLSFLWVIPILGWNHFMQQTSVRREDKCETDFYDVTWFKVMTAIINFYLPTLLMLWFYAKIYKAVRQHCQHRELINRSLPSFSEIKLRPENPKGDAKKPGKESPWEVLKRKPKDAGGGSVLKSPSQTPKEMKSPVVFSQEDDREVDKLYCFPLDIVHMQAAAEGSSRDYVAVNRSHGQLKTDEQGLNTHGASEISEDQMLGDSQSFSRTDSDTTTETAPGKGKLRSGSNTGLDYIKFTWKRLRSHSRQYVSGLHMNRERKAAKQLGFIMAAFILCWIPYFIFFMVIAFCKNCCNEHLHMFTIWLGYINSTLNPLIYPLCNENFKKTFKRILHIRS

SMILES	EC50 (Histamine H2 receptor [1])	EC50 (Histamine H4 receptor [2])	Ki (Histamine H1 receptor)	Kb (Histamine H3 receptor [3])	Intrinsic activity (Histamine H2 receptor [4])	Intrinsic activity (Histamine H3 receptor [5])	Ki (Histamine H4 receptor [6])	Ki (Histamine H3 receptor [7])
NC[C@H]1CC[C@H](c2c[nH]cn2)C1 (racemic)	> 10000 nM	1710 nM	> 10000 nM	103 nM	0	0		
NCCCCc1c[nH]cn1 [IMBUTAMINE]							12.7 nM	4.3 nM
NC[C@@H]1CC[C@H](c2c[nH]cn2)C1 (racemic)	> 10000 nM	150 nM	> 10000 nM	62 nM	0.19	0		
